# Assay results: patent publication US12215118B2, “Quinone methide analog signal amplification” (Ventana Medical Systems, Inc., priority 2014, dated 2025)
# Key:
# [1] = test system: Ki67 on FFPE tonsil tissue; assay: HRP DAB amplified by QMP-biotin with various leaving groups; details: CHES pH 10.0, ultraView DAB control; for signal resolution and intensity compared to the control slide: monofluoro 400 nM, acetate and methoxy 100 μM; for staining intensity and signal diffusion compared to the control slide: quaternary amine leaving groups, 100 μM
# Method: (b) Quinone methide analog precursor amplified DAB (FIGS. 21(B)-(D)). The tissue was deparaffinized and retrieved as described in the general procedures. Rabbit-anti-Ki-67 antibody incubation (37° C., 16 minutes) and washing were followed by secondary antibody incubation with a goat polyclonal anti-rabbit antibody conjugated to AP (37° C.; 12 minutes). After incubating with the AP conjugate the slides were washed with Special Stains wash. Pyridine QMP-biotin (100 μM) (FIG. 21(B)) or DABCO QMP-biotin (100 μM) (FIG. 21(C)) or triethylamine QMP-biotin (100 μM) (FIG. 21(D)) was dissolved in 100 mM CHES, pH 10.0, 0.05% Brij-35 to a final concentration of 100 nM. QMP turnover was achieved by adding 100 μL of AP Enhancer followed by 100 μL of biotin labeled QMP and incubating at 37° C. for 16 minutes. The deposited hapten was subsequently bound by streptavidin-HRP conjugate (37° C.; 8 minutes), and visualized via a brown precipitate produced by HRP upon the addition of hydrogen peroxide and DAB (37° C.; 8 minutes). The DAB was toned by the addition of copper sulfate (37° C.; 4 minutes). The stained tissue sections were counterstained with modified Mayer's hematoxylin (37° C.; 4 minutes) and then incubated with Bluing Reagent (37° C.; 4 minutes). They were then dehydrated through a graded ethanol series, cleared with xylene, and manually cover-slipped.
# (§1) (b) QMP amplified DAB (FIGS. 22(B)-22(D)). The tissue was deparaffinized and retrieved as described in the general procedures. Rabbit-anti-Ki-67 antibody incubation (37° C., 16 minutes) and washing were followed by secondary antibody incubation with a goat polyclonal anti-rabbit antibody conjugated to AP (37° C.; 12 minutes). After incubating with the AP conjugate the slides were washed with Special Stains wash. Monofluoro QMP-biotin (400 nM) (FIG. 22(B)) or acetate QMP-biotin (100 μM) (FIG. 22(C)) or methoxy QMP-biotin (100 μM) (FIG. 22(D)) was dissolved in 100 mM CHES, pH 10.0, 0.05% Brij-35 to a final concentration of 100 nM. QMP turnover was achieved by adding 100 μL of AP Enhancer followed by 100 μL of biotin labeled QMP and incubating at 37° C. for 16 minutes. The deposited biotin was subsequently bound by a streptavidin-HRP conjugate (37° C.; 8 minutes), and visualized via a brown precipitate produced by HRP upon the addition of hydrogen peroxide and DAB (37° C.; 8 minutes). The DAB was toned by the addition of copper sulfate (37° C.; 4 minutes). The stained tissue sections were counterstained with modified Mayer's hematoxylin (37° C.; 4 minutes) and then incubated with Bluing Reagent (37° C.; 4 minutes). They were then dehydrated through a graded ethanol series, cleared with xylene, and manually cover-slipped.
# [2] = Accelerated stability study in Buffer A (50/50 DMSO and 10 mM glycine buffer pH 2.0); format: physicochemical; details: 20-25 °C
# Method: With an understanding of the degradation pathways and characteristics, a solvent system was designed for the purpose of extending shelf-life of QMP compounds. […] At elevated temperature the degradation pathway described in FIG. 3C was still observed. However, at normal storage conditions (2-25° C.) the rate of decomposition of the QMP is reduced compared to 100% aqueous systems.
# [3] = test system: Bcl2 on FFPE tonsil tissue; assay: HRP DAB amplified by QMP-biotin with different linkers; details: 100 nM, CHES pH 10.0, different linkers
# Method: as §1, with “The” for “(b) QMP amplified DAB (FIGS. 22(B)-22(D)). The”, “Mouse-anti-Bcl-2” for “Rabbit-anti-Ki-67”, “anti-mouse” for “anti-rabbit”, “(with aniline amide (FIG. 23(A)), benzoic amide (FIG. 23(B)) or tyramide amide linker (FIG. 23(C)) (100” for “(400”, “nM)” for “nM) (FIG. 22(B)) or acetate QMP-biotin (100 μM) (FIG. 22(C)) or methoxy QMP-biotin (100 μM) (FIG. 22(D))”
# [4] = test system: BCL6 on FFPE tonsil tissue; assay: AP-based CARD IHC with biotinylated QM precursor followed by DAB detection
# Method: Detection 1—HRP DAB. After incubating with the AP conjugate the slides were washed with Special Stains wash (VMSI #860-015). QMP reagents were dissolved in 100 mM CHES (3-cyclo-hexylamino-ethylsulfonic acid), pH 10.0, 0.05% Brij-35. QMP turnover was achieved by adding 100 μL of AP Enhancer (VMSI #253-2182) followed by 100 μL of hapten labeled QMP and incubating at 37° C. for 16 minutes. Compound 29 is an exemplary hapten-QMP that could be used according to this method. The deposited hapten was subsequently bound by a mouse-anti-hapten-HRP conjugate (or streptavidin-HRP) (37° C.; 8 minutes), and visualized via a brown precipitate produced by HRP upon the addition of hydrogen peroxide and DAB (37° C.; 8 minutes). The DAB was toned by the addition of copper sulfate (37° C.; 4 minutes). The stained tissue sections were counterstained with modified Mayer's hematoxylin (Hematoxylin II, VMSI #790-2208) (37° C.; 4 minutes) and then incubated with Bluing Reagent (VMSI #760-2037) (37° C.; 4 minutes). The slides were then dehydrated through a graded ethanol series, cleared with xylene, and manually cover-slipped.
# Both compounds utilize fluoride as the leaving group, but the reactivity of the QM derived from difluoro compound 58 should be considerably lower than monofluoro 7 due to the electronic stabilization offered by the geminal fluorine atom. […] Therefore, the difluoro QM precursor compound 58 was evaluated first for IHC staining performance on FFPE tissue using the nuclear marker BCL6 on FFPE tonsil tissue as a model system. The biotin-labeled difluoro QM precursor successfully bound to the sample as evidenced by subsequent biotin visualization using diaminobenzidine (DAB) detection. FIG. 18 provides microphotographs illustrating the detection level at varying concentrations of the difluoro QM precursor in a Tris buffer at pH=8.5 (panel A—DAB control, panel B—1 μM, panel C—10 μM and panel D—20 μM). In addition, significant amplification of signal was observed compared to the DAB control sample when on-slide concentrations of difluoro QM precursor compound 58 greater than […] were utilized.
# To test the effect of pH on signal diffusion, difluoro QM precursor compound 58 was deposited as before at various pH levels within the working range for AP (7-12 with two shoulders of maximal activity at pH=8.5 and 11). The nuclear marker BCL6 on FFPE tonsil tissue was again chosen as the model. Positive staining was observed across the entire pH range, although a balance between overall signal and diffusion was seen. FIG. 19, panels A-H provide microphotographs of the detection levels of 20 µM QM precursor in Tris buffer with varying pH: panel A—DAB control; panel B pH=7.0; panel C pH=8.0; panel D pH=8.5; panel E pH=9.0; panel F pH=10.0; panel G pH=11.0; panel H pH=12.0. The diffusion appears to decrease with increasing pH. […] The level of amplification increased only as the pH rose to 8.5 and then decreased gradually over the rest of the range. This effect may be due to a combination of enzyme activity and the population of QM quenchers in the reaction media. At pH levels well below the optimal AP reaction conditions (7.0), the activity of AP was depressed, resulting in low signal. As the pH increased (8.0-8.5) but remained near the pKa of Tris (8.1), the activity of AP increased at a faster rate than the population of quenchers in the reaction media, leading to a significant increase in signal. Raising the pH further (9-10) increased the quencher population while decreasing AP activity, resulting in a decrease of signal. Although AP had maximal activity at pH 11 in Tris, a slight decrease in staining intensity was observed, most likely due to the excessively high population of quenchers that could not be overcome by the increased AP activity (raising the pH from 8.5 to 11 increases [Tris base] about 50%, with AP activity increasing by only about 20%). […]
compound,measurement,setting,value
O=C(CCCCC1SCC2NC(=O)NC21)NCCCCCC(=O)Nc1ccc(OP(=O)(O)O)c(CF)c1 (centres unmarked) [Monofluoro QMP-biotin],signal resolution and intensity compared to the control slide,[1],well resolved signal with greater or equal intensity to the control slide
CN(C)c1ccc(N=Nc2ccc(S(=O)(=O)NCCOCCOCCOCCOCCOCCOCCOCCOCCC(=O)NCCCCCCNC(=O)C(F)c3ccccc3OP(=O)(O)O)cc2)cc1 (centres unmarked) [28(C)],QMP remaining,[2]; 0.0 days,100%
same,QMP remaining,[2]; 1.0 days,100%
same,QMP remaining,[2]; 4.0 days,100%
same,QMP remaining,[2]; 8.0 days,100%
same,QMP remaining,[2]; 10.0 days,100%
same,QMP remaining,[2]; 14.0 days,100%
same,QMP remaining,[2]; 17.0 days,100%
same,QMP remaining,[2]; 25.0 days,97.8%
same,QMP remaining,[2]; 36.0 days,96.7%
"COCc1cc(NC(=O)CCCCCNC(=O)CCCCC2SCC3NC(=O)NC32)ccc1OP(=O)(O)O (centres unmarked) [methoxy QMP-biotin, 2-(methoxymethyl)-4-(6-(5-(2-oxohexahydro-1H-thieno[3,4-d]imidazol-4-yl)pentanamido)hexanamido)phenyl dihydrogen phosphate]",signal resolution and intensity compared to the control slide,[1],well resolved signal but with low intensity
CN1/C(=C/C=C/C=C/C2=[N+](CCCCCC(=O)NCCCCCCNC(=O)C(F)c3ccccc3OP(=O)(O)O)c3ccccc3C2(C)C)C(C)(C)c2ccccc21.[Cl-] (centres unmarked) [28(D)],QMP remaining,[2]; 0.0 days,99.9%
same,QMP remaining,[2]; 1.0 days,99.8%
same,QMP remaining,[2]; 4.0 days,95.4%
same,QMP remaining,[2]; 8.0 days,95.6%
same,QMP remaining,[2]; 10.0 days,95.7%
same,QMP remaining,[2]; 14.0 days,95.1%
same,QMP remaining,[2]; 17.0 days,95.8%
same,QMP remaining,[2]; 25.0 days,95.5%
same,QMP remaining,[2]; 36.0 days,94%
"O=C(CCCCC1SCC2NC(=O)NC21)NCCCCCC(=O)Nc1ccc(OP(=O)(O)O)c(C[N+]23CCN(CC2)CC3)c1 (centres unmarked) [DABCO QMP-biotin, 1-(5-(6-(5-(2-oxohexahydro-1H-thieno[3,4-d]imidazol-4-yl)pentanamido)hexanamido)-2-(phosphonooxy)benzyl)-1,4-diazabicyclo[2.2.2]octan-1-ium]",staining intensity and signal diffusion compared to the control slide,[1],much lower staining intensity and greatly diffuse signals
"O=C(CCCCC1SCC2NC(=O)NC21)NCCCCCC(=O)Nc1ccc(OP(=O)(O)O)c(C[n+]2ccccc2)c1 (centres unmarked) [pyridine QMP-biotin, 1-(5-(6-(5-(2-oxohexahydro-1H-thieno[3,4-d]imidazol-4-yl)pentanamido)hexanamido)-2-(phosphonooxy)benzyl)pyridin-1-ium]",staining intensity and signal diffusion compared to the control slide,[1],much lower staining intensity and greatly diffuse signals
"O=C(CCCCC1SCC2NC(=O)NC21)NCCCCCNC(=O)c1ccc(OP(=O)(O)O)c(CF)c1 (centres unmarked) [Compound 21, 2-(fluoromethyl)-4-((5-(5-(2-oxohexahydro-1H-thieno[3,4-d]imidazol-4-yl)pentanamido)pentyl)carbamoyl)phenyl dihydrogen phosphate]",signal resolution,[3],"more diffuse, less resolved signal"
"CC(=O)OCc1cc(NC(=O)CCCCCNC(=O)CCCCC2SCC3NC(=O)NC32)ccc1OP(=O)(O)O (centres unmarked) [acetate QMP-biotin, 5-(6-(5-(2-oxohexahydro-1H-thieno[3,4-d]imidazol-4-yl)pentanamido)hexanamido)-2-(phosphonooxy)benzyl acetate]",signal resolution and intensity compared to the control slide,[1],"weak, very diffuse signal"
"CC[N+](CC)(CC)Cc1cc(NC(=O)CCCCCNC(=O)CCCCC2SCC3NC(=O)NC32)ccc1OP(=O)(O)O (centres unmarked) [triethylamine QMP-biotin, N,N-diethyl-N-(5-(6-(5-(2-oxohexahydro-1H-thieno[3,4-d]imidazol-4-yl)pentanamido)hexanamido)-2-(phosphonooxy)benzyl)ethanaminium]",staining intensity and signal diffusion compared to the control slide,[1],much lower staining intensity and greatly diffuse signals
O=C(CCCCC1SCC2NC(=O)NC21)NCCCCCC(=O)Nc1ccc(OP(=O)(O)O)c(C(F)F)c1 (centres unmarked) [Compound 58],diffusion at the upper end of the pH range,"[4]; Tris buffer, pH 7-12",still too great to be of clinical use for IHC
same,on-slide concentration at which significant amplification of signal was observed compared to the DAB control,"[4]; Tris buffer, pH=8.5",greater than 20 μM
same,"diffusion of signal, off-target staining","[4]; Tris buffer, pH=8.5, 1-20 μM, all cases",increased diffusion of signal
same,concentration required to give the desired level of amplification,[4]; pH 8.5 in Tris buffer,20 µM
